“Also recorded” adds a separate entry of the source. Like-named read-outs stand apart in the source and are kept apart here.
Key:
[1] = biological target: T1, natural ABAR/CHLH protein (Arabidopsis thaliana, UniProt Q9FNB0); assay: ABA binding assay with crude extracts of leaves (WT, RNAi, OE lines)
T1 construct: 50 μg proteins of the crude extracts from two-week-old Arabidopsis seedlings; from tissue; host or cells: crude extracts of two-week-old Arabidopsis seedlings / leaves of gl1 (WT), RNAi line 12 and overexpressor line 1
T1 sequence (Q9FNB0 50-1381): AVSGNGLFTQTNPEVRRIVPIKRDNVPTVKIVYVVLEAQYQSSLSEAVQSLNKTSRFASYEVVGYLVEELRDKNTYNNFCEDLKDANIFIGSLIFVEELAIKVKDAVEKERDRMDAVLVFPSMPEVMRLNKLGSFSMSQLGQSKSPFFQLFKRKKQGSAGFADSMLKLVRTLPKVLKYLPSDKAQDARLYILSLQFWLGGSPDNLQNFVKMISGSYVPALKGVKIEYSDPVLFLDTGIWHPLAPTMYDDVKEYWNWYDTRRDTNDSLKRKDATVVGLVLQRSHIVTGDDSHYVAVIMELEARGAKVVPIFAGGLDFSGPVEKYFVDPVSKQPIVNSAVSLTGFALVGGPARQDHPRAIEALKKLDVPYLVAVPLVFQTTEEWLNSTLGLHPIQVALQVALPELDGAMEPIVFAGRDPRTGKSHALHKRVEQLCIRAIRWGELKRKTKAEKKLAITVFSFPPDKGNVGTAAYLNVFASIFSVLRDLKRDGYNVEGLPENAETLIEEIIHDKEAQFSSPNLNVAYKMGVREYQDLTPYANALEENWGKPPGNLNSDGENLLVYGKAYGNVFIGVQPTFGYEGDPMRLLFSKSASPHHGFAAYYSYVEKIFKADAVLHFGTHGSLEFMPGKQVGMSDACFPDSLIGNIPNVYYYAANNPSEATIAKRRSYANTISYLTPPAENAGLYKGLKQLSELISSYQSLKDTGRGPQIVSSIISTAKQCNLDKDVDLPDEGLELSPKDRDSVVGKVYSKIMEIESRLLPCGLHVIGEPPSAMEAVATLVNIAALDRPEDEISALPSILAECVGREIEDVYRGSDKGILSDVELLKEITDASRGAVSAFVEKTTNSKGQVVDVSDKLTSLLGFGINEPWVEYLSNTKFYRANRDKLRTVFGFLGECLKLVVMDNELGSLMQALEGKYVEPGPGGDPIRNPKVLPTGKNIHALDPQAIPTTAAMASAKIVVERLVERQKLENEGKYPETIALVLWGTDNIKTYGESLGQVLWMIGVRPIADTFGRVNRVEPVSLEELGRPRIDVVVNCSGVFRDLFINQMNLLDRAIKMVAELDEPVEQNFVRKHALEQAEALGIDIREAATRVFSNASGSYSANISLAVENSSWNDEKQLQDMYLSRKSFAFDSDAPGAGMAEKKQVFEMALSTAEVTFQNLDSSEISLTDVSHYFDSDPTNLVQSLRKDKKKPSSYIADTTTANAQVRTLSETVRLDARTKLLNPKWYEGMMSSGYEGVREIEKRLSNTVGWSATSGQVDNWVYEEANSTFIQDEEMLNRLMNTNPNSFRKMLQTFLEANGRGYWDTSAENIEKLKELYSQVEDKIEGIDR
Method: The ABA-binding activity of ABAR was assayed according to the previously described procedures (Zhang, D. P. et al., Plant physiol. 128:714-725 (2002)) with modifications. The binding medium (medium A) contained 50 mM Tris-HCl (pH 7.0), 2 mM MgCl2, 1 mM CaCl2, and 250 mM mannitol. The medium for extracting the Arabidopsis natural ABAR/CHLH protein (medium B) was the medium A supplemented with 2 mM 1,4-dithiothreitol (DTT), 1 mM phenylmethyl sulfonyl fluoride (PMSF), […] leupeptin, and […] pepstin A but minus 250 mM mannitol. [^3H](+)ABA (American Radiolabeled Chemicals, 2.37×10^12 Bq mmol^−1, purity 98.4%) at 30 nM, or at a step gradient of concentrations from 0 to 70 nM (when analyzing ABA binding kinetics, see FIG. 1a, d1), together with 2 μg purified yeast-expressed ABAR/CHLH protein or 50 μg proteins of the crude extracts from two-week-old Arabidopsis seedlings, was added into the medium A. The total volume for the binding assays was adjusted to 200 μl. The mixtures were incubated at 25° C. for 30 min, and then quickly placed on ice. Following the addition of 100 μl 0.5% (w/v) Dextran T70-coated charcoal (DCC) to remove the free [^3H]ABA by adsorption, the mixtures were maintained on ice for 5 min, and then centrifuged to remove DCC before the radioactivity in the supernatant was counted. The specific binding was determined by the difference between the radioactivity bound to the immuno-purified ABAR protein or crude extracts of Arabidopsis seedlings incubated only with [^3H]ABA (total binding) and radioactivity bound in the presence of 1,000-fold molar excess of unlabeled (+)-ABA (Sigma; non-specific binding. Non-specific binding in all the assays was lower than 10% of the total binding, see FIG. 1a, d1). The unlabeled ABA was added into the incubation medium at the same time with [^3H]ABA. The ABA-binding activity of the crude ABA-binding protein from Arabidopsis seedling was expressed as the number of nanomoles of [^3H]ABA specifically bound per gram of protein, and that of the immuno-purified ABAR protein as the number of moles of [^3H]ABA per mole of protein. The stereo-specificity of the ABA-binding was assayed as described previously (Zhang, D. P. et al., Plant physiol. 128:714-725 (2002)). […] The conditions of incubation were the same as described above (the incubation medium containing 30 nM [^3H]ABA), and the two ABA isomers and (+)-ABA were assayed in the concentrations ranging from 1 to 1000-fold molar excess of [^3H]ABA.
For the assays of ABA binding in transgenic ABAR-RNAi and -overexpressor plants, we used more than three lines for each type of the transgenic plants and the results obtained were similar. Thus, only were the data with RNAi line 12 and overexpressor line 1 (see FIG. 5) shown in the text.

[2] = tested on: gl1 seedlings; assay: Effects of ABA in vivo on chlorophyll, porphyrins and ABAR/CHLH protein; design: species or system Arabidopsis thaliana; details: exogenous ABA treatment, 10 d
Method: The contents of chlorophyll, protoporphyrin IX and Mg-protoporphyrin IX were assayed essentially by the previously described procedures (Mochizuki, N. et al., Proc. Natl. Acad. Sci. USA 98:2053-2058 (2001)).
For the effects of ABA in vivo, the seeds of the ecotype gl1 were germinated after stratification on common MS medium and 48 h later transferred to MS medium supplemented with different concentrations of ABA. 10 d later, the contents of chlorophyll and porphyrins including of protoporphyrin IX and Mg-protoporphyrin IX were measured. At the same time total proteins were extracted from leaves for testing the amounts of ABAR/CHLH protein by immunoblotting.

Q: What does the source list for `CC1=CC(=O)CC(C)(C)C1(O)/C=C/C(C)=C\C(=O)O` (centres unmarked) [ABA, abscisic acid]?
A: Kd ([1]; across WT, RNAi and overexpressing leaf extracts, read-out: Kd): 35 to 38 nM; Bmax ([1]; leaf extracts of RNAi transgenic plants): 25 nmol/g; Kd ([1]; leaf extracts of RNAi transgenic plants, read-out: Kd): 36 nM; Bmax ([1]; leaf extracts of overexpressors of ABAR/CHLH gene (OE, line 1)): 80 nmol/g; Kd ([1]; leaf extracts of overexpressors of ABAR/CHLH gene (OE, line 1), read-out: Kd): 38 nM; Bmax (maximum binding) ([1]; leaf extracts of wild-type plants (WT)): 60 nmol ABA g^−1 crude protein; Kd ([1]; leaf extracts of wild-type plants (WT), read-out: Kd (equilibrium dissociation constant)): 35 nM; MgProto contents [2]: enhances; Proto contents [2]: significantly decreased; also recorded: decreases; chlorophyll contents [2]: significantly decreased; also recorded: decreases; ABAR expression (protein levels) ([2]; immunoblotting): stimulated; also recorded: enhances
